Like-named read-outs stand apart in the source and are kept apart here.
How the values were obtained:
glaucomatous beagles [1] = assay: IOP changes in glaucomatous beagles after travoprost instillations; assay type: in vivo
From the text: (§1) A pharmacodynamic study performed in twelve glaucomatous beagles evaluated the changes in intraocular pressure (IOP) and pupil diameter (PD) after instillations of 0.033, 0.0033, 0.001, 0.00033, and 0.0001% travoprost in multiple single-dose studies.

glaucomatous beagles [2] = assay: Pupil diameter changes in glaucomatous beagles after travoprost instillations; assay type: in vivo
From the text: as §1

[3] = system: subjects with primary open-angle glaucoma or ocular hypertension; assay: IOP in subjects with primary open-angle glaucoma or ocular hypertension; assay type: in vivo, human; conditions: patients
From the text: Patient population was controlled ocular hypertension or primary open-angle glaucoma; open, normal anterior chamber angles on gonioscopy. Primary outcomes were as follows. Diurnal IOP (8 AM, 10 AM, 4 PM) at Baseline. Day 14. Day 42. Day 85, Month 4 and Month 6. Intraocular pressure at 8 AM at Day 1. Day 3. Day 7 and Day 28. Safety evaluations, including adverse event reporting, ocular comfort, global tolerance, BCVA, endothelial cell counts, and pachymetry.

[4] = system: lasered hypertensive cynomolgus monkeys; conditions: cited from earlier work

Compound: CC(C)OC(=O)CCC/C=C\C[C@@H]1[C@@H](/C=C/[C@@H](O)COc2cccc(C(F)(F)F)c2)[C@H](O)C[C@@H]1O [travoprost]
- effect on IOP (glaucomatous beagles [1]; 0.0001% concentration): limited IOP changes
- effect on IOP (glaucomatous beagles [1]; concentrations of 0.00033, 0.001, and 0.0033%, single-dose instillation): significantly lowered
- dosage strength that maintained IOP reduction for 24 hours (glaucomatous beagles [1]; dog, in vivo): ≥ 0.001%
- PD changes (glaucomatous beagles [2]; 0.0001% concentration): still significant
- pupil constriction maintained for 24 hours (glaucomatous beagles [2]; all dosage strengths): no dosage strength maintained pupil constriction for 24 hours
- effect on pupil diameter (PD) (glaucomatous beagles [2]; concentrations of 0.00033, 0.001, and 0.0033%): significantly lowered
- onset of decrease in mean IOP following administration [3]: as early as two days
- IOP lowering ([4]; continued twice a day dosing at 0.1 μg, after doses 4 and 5): significant lowering of IOP
- IOP lowering ([4]; single dose of 0.1 μg): did not significantly lower IOP
- IOP reduction ([4]; single dose of 0.3 μg): 19-26%
